Activity calls are given as the source filed them.
Tests used:
[1] = microbe, parasite or virus in culture; type: functional; conditions: Mycobacterium tuberculosis
[2] = target: T1, Probable nicotinate-nucleotide adenylyltransferase (Staphylococcus aureus (strain N315), UniProt P65502); type: functional, Staphylococcus aureus subsp. aureus N315; conditions: read-out: IC50_Mean;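 on IC50 Mean: confirmatory dose-response retesting of NadD inhibitor hits first found in an ultra-high-throughput screen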
T1 sequence (P65502 whole entry): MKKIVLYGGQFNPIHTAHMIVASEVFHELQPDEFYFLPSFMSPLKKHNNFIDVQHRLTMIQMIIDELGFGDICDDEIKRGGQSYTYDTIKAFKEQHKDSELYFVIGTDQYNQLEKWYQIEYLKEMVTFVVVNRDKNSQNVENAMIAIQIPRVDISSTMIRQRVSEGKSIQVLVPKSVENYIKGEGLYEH

[3] = target: T1, Probable nicotinate-nucleotide adenylyltransferase; type: functional, Staphylococcus aureus subsp. aureus N315
[4] = C. albicans growth with fluconazole, confirmation, fluorescence, retest (AID 2467); type: functional, cell-based
[5] = target: T2, Orexin/Hypocretin receptor type 1 (Homo sapiens, UniProt O43613); assay: (§1) Fluorescence-based cell-based high throughput dose response assay for antagonists of the orexin 1 receptor (OX1R; HCRTR1). [Related pubchem assays (depositor defined):AID434989, AID435008, AID463079, AID485270, AID492963, AID492964, AID492965, AID493232, AID504717, AID504718]; type: functional
T2 sequence (O43613 whole entry): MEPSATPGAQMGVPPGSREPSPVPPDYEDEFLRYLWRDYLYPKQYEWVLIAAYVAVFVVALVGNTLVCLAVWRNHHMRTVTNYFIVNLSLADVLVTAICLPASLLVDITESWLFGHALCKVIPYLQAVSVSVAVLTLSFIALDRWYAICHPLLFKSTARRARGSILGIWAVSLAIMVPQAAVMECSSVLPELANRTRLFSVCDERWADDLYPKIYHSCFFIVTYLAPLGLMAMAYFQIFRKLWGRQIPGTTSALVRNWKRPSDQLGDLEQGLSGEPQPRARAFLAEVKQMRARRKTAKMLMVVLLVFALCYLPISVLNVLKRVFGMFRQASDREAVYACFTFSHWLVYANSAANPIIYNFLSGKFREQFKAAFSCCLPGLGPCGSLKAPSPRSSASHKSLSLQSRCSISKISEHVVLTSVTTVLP

[6] = NIH-3T3 fibroblast cytotoxicity, dose response, cytotoxicity control, cell-based, fluorescence, Alamar Blue, secondary assay (AID 2327); type: functional;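 further: NIH-3T3 mouse fibroblasts cultured with fluconazole at 8 µg/mL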
Orexin receptor type 2 [7] = target: T3, Orexin receptor type 2 (Homo sapiens, UniProt O43614); assay: Counterscreen assay for antagonists of the orexin 1 receptor (OX1R; HCRTR1): Homogeneous Time Resolved Fluorescence (HTRF)-based cell-based dose response assay for antagonists of the orexin 2 receptor (OX2R; HCRTR2), run by assay provider.; type: functional
T3 sequence (O43614 whole entry): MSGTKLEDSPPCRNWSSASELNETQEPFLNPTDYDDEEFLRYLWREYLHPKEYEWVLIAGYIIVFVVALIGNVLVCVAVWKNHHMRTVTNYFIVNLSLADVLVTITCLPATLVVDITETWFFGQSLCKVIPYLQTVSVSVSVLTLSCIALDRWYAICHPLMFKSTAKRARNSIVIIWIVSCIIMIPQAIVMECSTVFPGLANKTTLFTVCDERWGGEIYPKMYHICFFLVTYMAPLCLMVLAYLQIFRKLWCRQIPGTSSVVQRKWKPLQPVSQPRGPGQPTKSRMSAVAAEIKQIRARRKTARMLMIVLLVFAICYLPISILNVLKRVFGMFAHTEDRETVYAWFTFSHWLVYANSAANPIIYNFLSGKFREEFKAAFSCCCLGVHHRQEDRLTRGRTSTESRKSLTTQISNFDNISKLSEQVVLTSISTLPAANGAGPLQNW

Orexin receptor type 2 [8] = target: T3, Orexin receptor type 2; assay: Counterscreen assay for antagonists of the orexin 1 receptor (OX1R; HCRTR1): Fluorescence-based cell-based dose response assay for antagonists of the orexin 2 receptor (OX2R; HCRTR2), run by assay provider.; type: functional
[9] = (§2) Counterscreen for antagonists of the orexin 1 receptor (OX1R; HCRTR1): Fluorescence-based cell-based high throughput dose response assay to identify antagonists of the parental CHO cell line. [Related pubchem assays (depositor defined):AID434989, AID435008, AID463079, AID485270, AID492963, AID492964, AID492965, AID493232, AID504699, AID504701]; type: functional
CHO-K1 = assay: as §2, with “Homogeneous time resolved fluorescence (HTRF)-based” for “Fluorescence-based”, “cell-based” for “cell-based high throughput”, “CHO-K1” for “CHO”; type: functional; conditions: Cricetulus griseus;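 further: potency for inhibition of ATP-stimulated IP1 production as antagonists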
[10] = target: T2, Orexin/Hypocretin receptor type 1; assay: as §1, with “Homogeneous Time Resolved Fluorescence (HTRF)-based” for “Fluorescence-based”; type: functional
Vero [11] = assay: Vero cell cytotoxicity, cytotoxicity control for flavivirus capping enzyme inhibitors (AID 588742); type: functional; conditions: Chlorocebus sabaeus
[12] = THP-1 cell cytotoxicity, dose response, cytotoxicity control for Vif-APOBEC3G degradation inhibitor project, THP-1 cells (AID 1117359); type: functional; conditions: Human immunodeficiency virus 1, THP-1
Mu-type opioid receptor = Mu-type opioid receptor (Homo sapiens, UniProt P35372); assay: (§3) Counterscreen for agonists of heterodimerization of the mu 1 (OPRM1) and delta 1 (OPRD1) opioid receptors: Luminescence-based cell-based high throughput dose response assay to identify agonists of OPRM1 homodimerization.; type: functional
Mu-type opioid receptor, sequence (P35372 whole entry): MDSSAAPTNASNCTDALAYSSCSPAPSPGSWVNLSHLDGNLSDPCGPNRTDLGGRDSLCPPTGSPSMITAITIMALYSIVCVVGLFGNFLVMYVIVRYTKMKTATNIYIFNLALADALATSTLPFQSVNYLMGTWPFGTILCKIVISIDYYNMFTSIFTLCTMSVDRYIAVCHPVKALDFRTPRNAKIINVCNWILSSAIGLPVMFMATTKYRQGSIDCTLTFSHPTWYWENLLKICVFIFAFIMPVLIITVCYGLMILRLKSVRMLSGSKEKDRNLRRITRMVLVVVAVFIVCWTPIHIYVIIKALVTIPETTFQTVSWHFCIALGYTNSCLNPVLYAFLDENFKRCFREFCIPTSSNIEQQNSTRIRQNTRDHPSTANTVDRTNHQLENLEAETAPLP

[13] = target: Delta-type opioid receptor (Homo sapiens, UniProt P41143); assay: as §3, with “of OPRD1” for “of OPRM1”, “homodimerization. [Related pubchem assays (depositor defined):AID504326, AID504355, AID504692, AID504904, AID504905]” for “homodimerization.”; type: functional
Delta-type opioid receptor, sequence (P41143 whole entry): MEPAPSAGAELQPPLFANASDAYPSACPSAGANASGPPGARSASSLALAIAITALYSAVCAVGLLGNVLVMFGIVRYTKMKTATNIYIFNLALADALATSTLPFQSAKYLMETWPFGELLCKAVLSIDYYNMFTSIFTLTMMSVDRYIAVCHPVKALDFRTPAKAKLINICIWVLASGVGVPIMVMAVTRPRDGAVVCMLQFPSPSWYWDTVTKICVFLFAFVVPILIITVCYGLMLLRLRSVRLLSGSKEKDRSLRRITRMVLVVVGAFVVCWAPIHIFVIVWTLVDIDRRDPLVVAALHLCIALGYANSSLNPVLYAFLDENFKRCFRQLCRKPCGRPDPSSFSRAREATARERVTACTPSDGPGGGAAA

[14] = target: T4, Short transient receptor potential channel 4 (Mus musculus, UniProt Q9QUQ5); assay: mouse TRPC4 channel activators, dose response, cell-based, HEK293 TRPC4/mu-opioid, Fluo-4 calcium (AID 434937); type: functional
T4 sequence (Q9QUQ5 whole entry): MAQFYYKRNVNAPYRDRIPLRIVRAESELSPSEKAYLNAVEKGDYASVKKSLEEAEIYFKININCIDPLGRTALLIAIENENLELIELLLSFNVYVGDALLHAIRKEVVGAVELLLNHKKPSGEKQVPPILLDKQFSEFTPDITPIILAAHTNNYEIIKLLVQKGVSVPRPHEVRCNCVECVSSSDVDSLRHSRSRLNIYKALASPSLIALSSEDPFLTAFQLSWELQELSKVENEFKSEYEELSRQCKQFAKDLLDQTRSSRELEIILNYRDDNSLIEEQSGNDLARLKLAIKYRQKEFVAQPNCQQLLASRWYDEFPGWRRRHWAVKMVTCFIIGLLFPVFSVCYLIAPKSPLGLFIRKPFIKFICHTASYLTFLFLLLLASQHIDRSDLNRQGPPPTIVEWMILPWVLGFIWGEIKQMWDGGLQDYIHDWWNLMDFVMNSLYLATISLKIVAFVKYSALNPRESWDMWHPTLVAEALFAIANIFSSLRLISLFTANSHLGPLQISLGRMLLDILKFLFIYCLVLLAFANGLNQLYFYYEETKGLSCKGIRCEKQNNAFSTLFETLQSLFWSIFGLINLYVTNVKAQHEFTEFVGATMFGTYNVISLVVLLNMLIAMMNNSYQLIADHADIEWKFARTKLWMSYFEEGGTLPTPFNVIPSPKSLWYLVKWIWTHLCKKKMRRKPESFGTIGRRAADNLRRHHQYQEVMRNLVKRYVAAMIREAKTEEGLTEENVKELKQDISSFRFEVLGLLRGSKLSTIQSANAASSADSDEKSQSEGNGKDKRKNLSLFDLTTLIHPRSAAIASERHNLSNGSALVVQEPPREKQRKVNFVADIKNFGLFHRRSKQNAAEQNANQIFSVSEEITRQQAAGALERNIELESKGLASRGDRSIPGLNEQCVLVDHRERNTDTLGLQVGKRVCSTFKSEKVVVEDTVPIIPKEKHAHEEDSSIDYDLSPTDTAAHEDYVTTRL

[15] = target: 5-hydroxytryptamine receptor 5A (Homo sapiens, UniProt P47898); assay: Counterscreen for agonists of OPRM1-OPRD1 heterodimerization: luminescence-based cell-based high throughput dose response assay to identify agonists of 5-hydroxytryptamine (serotonin) 5A receptor (HTR5A). [Related pubchem assays (depositor defined):AID504326, AID504355, AID504692, AID504904, AID504905]; type: functional
5-hydroxytryptamine receptor 5A, sequence (P47898 whole entry): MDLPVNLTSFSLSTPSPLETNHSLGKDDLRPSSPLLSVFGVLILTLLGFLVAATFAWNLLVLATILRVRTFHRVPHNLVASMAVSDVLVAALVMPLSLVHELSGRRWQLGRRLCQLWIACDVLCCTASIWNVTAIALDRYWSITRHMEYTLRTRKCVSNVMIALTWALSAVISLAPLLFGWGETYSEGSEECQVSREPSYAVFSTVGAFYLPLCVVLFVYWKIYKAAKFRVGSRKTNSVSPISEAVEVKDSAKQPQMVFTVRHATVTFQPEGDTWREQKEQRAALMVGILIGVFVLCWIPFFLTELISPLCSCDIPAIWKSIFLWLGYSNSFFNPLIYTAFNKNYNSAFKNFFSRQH

Large T antigen = Large T antigen (Simian virus 40, UniProt P03070); type: functional, Betapolyomavirus macacae;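 further: Confirmatory-stage PubChem screen for compounds that inhibit SV40 T antigen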
Large T antigen, sequence (P03070 whole entry): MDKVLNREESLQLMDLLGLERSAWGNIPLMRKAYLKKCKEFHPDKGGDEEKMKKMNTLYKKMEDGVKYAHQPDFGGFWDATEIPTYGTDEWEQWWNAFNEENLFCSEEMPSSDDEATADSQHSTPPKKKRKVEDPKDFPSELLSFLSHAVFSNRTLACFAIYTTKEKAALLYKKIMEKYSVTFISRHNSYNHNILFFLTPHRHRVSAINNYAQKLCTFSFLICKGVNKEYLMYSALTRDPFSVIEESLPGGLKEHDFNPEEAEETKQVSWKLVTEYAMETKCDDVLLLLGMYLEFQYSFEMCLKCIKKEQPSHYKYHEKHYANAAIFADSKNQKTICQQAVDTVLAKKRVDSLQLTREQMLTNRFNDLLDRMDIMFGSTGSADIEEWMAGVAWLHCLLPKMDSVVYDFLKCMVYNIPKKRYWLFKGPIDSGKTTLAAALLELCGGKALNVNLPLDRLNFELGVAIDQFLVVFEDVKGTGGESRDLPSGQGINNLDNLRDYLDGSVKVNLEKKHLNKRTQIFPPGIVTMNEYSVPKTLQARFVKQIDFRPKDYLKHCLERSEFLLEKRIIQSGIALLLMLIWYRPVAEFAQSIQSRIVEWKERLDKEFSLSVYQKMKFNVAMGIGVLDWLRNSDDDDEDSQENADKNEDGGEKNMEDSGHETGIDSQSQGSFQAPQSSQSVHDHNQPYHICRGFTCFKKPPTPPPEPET

INS1 = assay: beta cell apoptosis inhibitors, cytokine rescue, dose response, luminescence, retest (AID 449756); type: functional, cell-based; conditions: Rattus norvegicus;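 further: cell death triggered by IL-1 beta plus TNF-alpha plus IFN-gamma mixture; protective hits raise ATP signal compared with cytokine alone wells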
[16] = inhibitors of PGC1a acetylation in cells, dose response, cell-based, cherry-picked samples (AID 720514); type: functional;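 further: potency may reflect raised or lowered acetylation signal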
[17] = target: T4, Short transient receptor potential channel 4; assay: mouse TRPC4 channel inhibitors, dose response, cell-based, HEK293 TRPC4/mu-opioid, Fluo-4 calcium (AID 434942); type: functional;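 further: potency of inhibitors blocking the TRPC4 calcium response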
[18] = cytotoxicity toward NIH3T3 fibroblasts, dose response, counter-screen, cell-based, ATP luminescence, mouse fibroblasts (AID 2010); type: functional;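 further: cells exposed to compound for about 90 hours before reading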
[19] = target: T5, Hepatocyte nuclear factor 4-alpha (Homo sapiens, UniProt P41235); type: functional, cell-based;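 further: biochemical luminescence-based dose-response counterscreen measuring inhibition of HNF4 dimerization, run alongside a screen for blockers of ABHD5–perilipin-5 interaction; split luciferase complementation of HNF4 fusion proteins in cell lysate measuring dimerization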
T5 sequence (P41235 whole entry): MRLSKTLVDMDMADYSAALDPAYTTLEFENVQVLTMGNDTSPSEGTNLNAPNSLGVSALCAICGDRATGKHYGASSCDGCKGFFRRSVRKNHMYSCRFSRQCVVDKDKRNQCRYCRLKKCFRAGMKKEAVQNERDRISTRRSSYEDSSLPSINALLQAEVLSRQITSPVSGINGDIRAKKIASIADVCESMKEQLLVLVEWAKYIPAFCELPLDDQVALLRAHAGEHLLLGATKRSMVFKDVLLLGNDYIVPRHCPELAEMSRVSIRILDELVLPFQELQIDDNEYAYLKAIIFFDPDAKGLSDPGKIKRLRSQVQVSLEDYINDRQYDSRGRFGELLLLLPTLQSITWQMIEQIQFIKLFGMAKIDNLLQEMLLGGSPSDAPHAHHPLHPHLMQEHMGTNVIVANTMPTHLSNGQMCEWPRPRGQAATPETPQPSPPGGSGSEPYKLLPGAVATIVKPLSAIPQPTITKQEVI

Genome polyprotein = Genome polyprotein (dengue virus type 2, UniProt P29990); assay: Dengue-2 NS5 methyltransferase inhibitors, primary screen, biochemical, confirmation dose response (AID 588689); type: functional
Genome polyprotein, sequence (P29990 2492-3391 limits assumed): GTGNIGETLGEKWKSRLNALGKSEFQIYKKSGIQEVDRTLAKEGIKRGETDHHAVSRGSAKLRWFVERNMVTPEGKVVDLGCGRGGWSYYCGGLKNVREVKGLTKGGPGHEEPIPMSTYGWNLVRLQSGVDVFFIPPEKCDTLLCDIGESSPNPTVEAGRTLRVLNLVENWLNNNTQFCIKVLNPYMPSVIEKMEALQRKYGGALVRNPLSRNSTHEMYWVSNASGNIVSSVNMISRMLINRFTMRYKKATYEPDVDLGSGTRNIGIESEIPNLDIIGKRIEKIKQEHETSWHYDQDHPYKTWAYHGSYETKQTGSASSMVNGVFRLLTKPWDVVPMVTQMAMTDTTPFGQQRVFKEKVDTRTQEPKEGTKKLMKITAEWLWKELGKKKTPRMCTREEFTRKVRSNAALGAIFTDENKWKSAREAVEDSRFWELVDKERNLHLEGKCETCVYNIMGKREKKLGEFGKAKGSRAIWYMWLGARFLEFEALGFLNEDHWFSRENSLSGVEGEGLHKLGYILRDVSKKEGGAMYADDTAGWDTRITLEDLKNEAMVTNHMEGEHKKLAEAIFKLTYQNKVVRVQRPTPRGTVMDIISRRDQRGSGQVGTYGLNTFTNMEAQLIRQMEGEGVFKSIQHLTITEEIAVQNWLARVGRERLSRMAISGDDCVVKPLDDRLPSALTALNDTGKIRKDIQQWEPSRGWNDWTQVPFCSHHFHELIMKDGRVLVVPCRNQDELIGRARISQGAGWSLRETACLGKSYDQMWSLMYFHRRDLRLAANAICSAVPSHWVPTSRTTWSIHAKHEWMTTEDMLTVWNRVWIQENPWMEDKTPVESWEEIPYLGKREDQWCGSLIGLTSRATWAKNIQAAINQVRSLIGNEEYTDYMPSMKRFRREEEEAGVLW

[20] = inhibitors of intracellular T. cruzi replication, confirmation, NIH3T3 host cells, beta-gal luminescence (AID 2044); type: functional, cell-based;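 further: intracellular parasites grown in NIH/3T3 mouse fibroblasts as host cells; luminescent beta-galactosidase reporter signal from transgenic T. cruzi replicating inside host cells; inhibitors lower the luminescence signal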
Vero [21] = assay: cells; type: functional, cell-based; conditions: Chlorocebus sabaeus
cells = type: functional, cell-based; conditions: HEK-CNG
Galanin receptor type 3 = target: T6, Galanin receptor type 3 (Homo sapiens, UniProt O60755); assay: Fluorescence-based cell-based primary high throughput dose response assay to identify antagonists of the Galanin Receptor 3 (GalR3).; type: functional
T6 sequence (O60755 whole entry): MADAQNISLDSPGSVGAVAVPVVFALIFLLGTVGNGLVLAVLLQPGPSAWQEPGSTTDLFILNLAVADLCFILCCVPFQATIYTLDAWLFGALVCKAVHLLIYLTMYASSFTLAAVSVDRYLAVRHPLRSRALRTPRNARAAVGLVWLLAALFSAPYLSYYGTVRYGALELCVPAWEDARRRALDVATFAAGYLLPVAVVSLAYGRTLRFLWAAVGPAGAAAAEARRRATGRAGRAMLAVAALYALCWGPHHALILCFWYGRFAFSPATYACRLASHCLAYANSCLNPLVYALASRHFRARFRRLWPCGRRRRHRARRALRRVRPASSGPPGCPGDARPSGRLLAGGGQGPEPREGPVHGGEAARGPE

Paired box protein Pax-8 = Paired box protein Pax-8 (Homo sapiens, UniProt Q06710); assay: inhibitors of PAX8-driven TPO luciferase reporter, dose response, RMG-I cells, cherry-pick (AID 687027); type: functional, cell-based;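 further: luciferase reporter driven by Pax8 target thyroperoxidase promoter measured by SteadyGlo luminescence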
Paired box protein Pax-8, sequence (Q06710 whole entry): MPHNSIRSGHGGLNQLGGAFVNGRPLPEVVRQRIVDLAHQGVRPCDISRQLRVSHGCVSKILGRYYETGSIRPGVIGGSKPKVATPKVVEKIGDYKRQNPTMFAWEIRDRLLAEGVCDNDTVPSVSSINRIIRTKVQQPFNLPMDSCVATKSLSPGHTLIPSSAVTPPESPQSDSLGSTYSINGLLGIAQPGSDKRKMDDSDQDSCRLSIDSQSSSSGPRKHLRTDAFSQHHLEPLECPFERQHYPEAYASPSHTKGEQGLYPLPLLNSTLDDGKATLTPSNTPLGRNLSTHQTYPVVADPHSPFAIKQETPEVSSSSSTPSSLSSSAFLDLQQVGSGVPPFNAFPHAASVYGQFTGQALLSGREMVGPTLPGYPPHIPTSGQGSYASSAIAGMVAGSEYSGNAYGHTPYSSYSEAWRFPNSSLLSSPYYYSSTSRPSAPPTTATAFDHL

Vero [22] = assay: cells; type: functional; conditions: Chlorocebus sabaeus

SMILES: O=C(Nc1nnc(-c2ccccc2)o1)c1cc(-c2cccs2)nc2ccccc12
- CC50 [1]: 38.7 µM (active)
- IC50 [2]: 19.5 µM (active)
- IC50 [3]: 6.82 µM (active)
- EC50 [4]: 1.15 µM (active)
- IC50 [5]: 30.4 µM (inactive)
- EC50 [6]: > 150 µM (inconclusive)
- IC50 (Orexin receptor type 2 [7]): > 50 µM (inactive)
- IC50 (Orexin receptor type 2 [8]): 8.5 µM (active)
- IC50 [9]: 43.7 µM (inactive)
- IC50 (CHO-K1): > 66.2 µM (inactive)
- IC50 [10]: 6.15 µM (active)

SMILES: Oc1ccc(NCc2cccc(OCc3ccccc3)c2)cc1
- CC50 (Vero [11]): > 40 µM (active)
- CC50 [12]: 36.2 µM (active)

SMILES: CCCC(=O)NC(C)C(c1cccs1)N1CCN(c2ccccc2)CC1 (stereo unspecified)
- EC50 (Mu-type opioid receptor): > 92.5 µM (inactive)
- EC50 [13]: > 92.5 µM (inactive)
- EC50 [14]: 0.267 µM (active)
- EC50 [15]: > 92.5 µM (inactive)

SMILES: CCOC(=O)c1c(NC(=O)/C=C/C(=O)O)sc(C)c1-c1ccc(C(C)(C)C)cc1
- IC50 (Large T antigen): 20.8 µM (active)
- AC50 (INS1): 4.33 µM (active)
- AC50 [16]: 32.8 µM (active)
- EC50 [17]: 5.31 µM (active)
- EC50 [18]: > 60 µM (not active)
- CC50 (Vero [11]): 10.6 µM (active)
- IC50 [19]: 17.4 µM (inactive)
- IC50 (Genome polyprotein): 25.6 µM (active)
- EC50 [20]: 3.42 µM (active)

SMILES: CCOC(=O)c1ccc2[nH]c(C)c(C)c2c1
- IC50 [5]: 20.2 µM (inactive)
- IC50 (Orexin receptor type 2 [7]): 13.5 µM (inactive)
- IC50 (Orexin receptor type 2 [8]): 18.8 µM (inactive)
- IC50 [9]: > 49.8 µM (inactive)
- IC50 (CHO-K1): > 66.3 µM (inactive)
- IC50 [10]: 5.45 µM (active)

SMILES: COc1ccc(C(CNC(=O)C(C)c2ccc3cc(OC)ccc3c2)N(C)C)cc1 (stereo unspecified)
- EC50 (Mu-type opioid receptor): > 92.4 µM (inactive)
- EC50 [13]: > 92.4 µM (inactive)
- EC50 [14]: 0.473 µM (active)
- EC50 [15]: > 92.4 µM (inactive)

SMILES: C[C@]12CC[C@H]3[C@@H](CC[C@@]4(O)C[C@@H](O)CC[C@]34C=O)[C@]1(O)CC[C@@H]2C1=CC(=O)OC1
- IC50 (Vero [21]): < 0.05 µM (active)
- EC50 (cells): > 29.9 µM (inactive)
- IC50 (Galanin receptor type 3): > 29.9 µM (inactive)
- AC50 (Paired box protein Pax-8): 3.39 µM (active)
- CC50 (Vero [22]): 1.65 µM (active)
